Measured values published in patent US7223781B2 (Beiersdorf AG, priority 2001, dated 2007).
Like-named read-outs stand apart in the source and are kept apart here.

Biological target: T1, COX-1 (Sus scrofa, UniProt A0A287ANF9)
T1 construct: A platelet suspension obtained from pig's blood is preincubated with the test substance; endogenous in cells; host or cells: platelets from pig's blood
Assay: In-vitro test for COX-1 inhibition: fluorimetric quantification of malonaldehyde (MDA) in A23187-activated pig platelet suspension
Type: cell-based
Procedure: In-vitro Test Procedure for the Determination of COX-1 Inhibition
The inhibition of the cyclooxygenase pathway is carried out by fluorimetric quantification of malonaldehyde (MA). This condenses in the acidic medium with twice the molar amount of thiobarbituric acid to give a red pigment dye, which has a fluorescence at λExcitation: 533 nm, λEmission: 550 nm.
A platelet suspension obtained from pig's blood is preincubated with the test substance for 10 min at 37° C. The concentration of the suspension should be 8×10^8 cells/ml. The arachidonic acid cascade is then activated by addition of the antibiotic calcium ionophore A23187 ([…]). After a further 10 min at 37° C., the reaction is stopped using a trichloroacetic acid solution. The samples are centrifuged and the supernatant is incubated with thiobarbituric acid for 30 min at 70° C. After cooling (30 min at room temperature), the samples are measured fluorimetrically at 533/550 nm and the IC50 values of the test compounds are determined therefrom by means of a calibration curve.

[1] = Table 7, arylamides, pig platelets, read-out: MDA pIC50 (converted)
[2] = Table 7, arylamides, pig platelets, read-out: MDA IC50
[3] = Table 9, alkylamides, pig platelets, read-out: MDA IC50
[4] = tables 1 to 17, read-out: IC50 values (inhibition of cyclooxygenase-1)
[5] = Table 9, alkylamides, pig platelets, read-out: MDA pIC50 (converted)
[6] = Table 11, heteroaryl- and naphthylamides, pig platelets, read-out: MDA pIC50 (converted)
[7] = Table 10, alkylsulfonamides, pig platelets, read-out: MDA pIC50 (converted)
[8] = Table 12, naphthylsulfonamides, pig platelets, read-out: MDA pIC50 (converted)
[9] = Table 5, heteroarylmethyl sulfides, pig platelets, read-out: MDA pIC50 (converted)

T1 sequence (A0A287ANF9 25-600): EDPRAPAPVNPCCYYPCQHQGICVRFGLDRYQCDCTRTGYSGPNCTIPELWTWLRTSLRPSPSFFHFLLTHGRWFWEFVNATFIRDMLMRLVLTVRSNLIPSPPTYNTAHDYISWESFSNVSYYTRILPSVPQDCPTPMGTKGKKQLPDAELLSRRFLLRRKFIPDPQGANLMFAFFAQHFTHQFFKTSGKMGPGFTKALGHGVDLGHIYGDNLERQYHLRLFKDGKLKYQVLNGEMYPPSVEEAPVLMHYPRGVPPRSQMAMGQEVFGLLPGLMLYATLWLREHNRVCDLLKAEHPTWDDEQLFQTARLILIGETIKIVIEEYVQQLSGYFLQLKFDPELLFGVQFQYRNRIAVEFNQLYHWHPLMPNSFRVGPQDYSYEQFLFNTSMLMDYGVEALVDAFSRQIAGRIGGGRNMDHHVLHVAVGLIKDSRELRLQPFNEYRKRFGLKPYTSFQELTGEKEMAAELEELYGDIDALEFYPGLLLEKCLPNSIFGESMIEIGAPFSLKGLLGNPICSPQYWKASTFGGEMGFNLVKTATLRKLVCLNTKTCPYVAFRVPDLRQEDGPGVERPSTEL

## COc1ccc(-c2nc(SCCNC(=O)c3ccccc3[N+](=O)[O-])[nH]c2-c2ccc(OC)cc2)cc1 [Compound T41, N^1-{2-[4,5-Bis(4-methoxyphenyl)-1H-imidazol-2-ylsulfanyl]ethyl}-2-nitro-benzamide]
[1]
  IC50: 0.17 µM

## COc1ccc(-c2nc(SCCNC(=O)c3ccc(C(F)(F)F)cc3)[nH]c2-c2ccc(OC)cc2)cc1 [Compound T42, N^1-{2-[4,5-Bis(4-methoxyphenyl)-1H-imidazol-2-ylsufanyl]ethyl}-4-(tri-fluoromethyl)benzamide]
[1]
  IC50: 0.324 µM

## COc1ccc(-c2nc(SCCNC(=O)c3cccc(C(F)(F)F)c3)[nH]c2-c2ccc(OC)cc2)cc1 [Compound T43, N^1-{2-[4,5-Bis(4-methoxyphenyl)-1H-imidazol-2-ylsufanyl]ethyl}-3-(tri-fluoromethyl)benzamide]
[1]
  IC50: 0.1 µM

## COc1ccc(-c2nc(SCCNC(=O)c3cc(C(F)(F)F)cc(C(F)(F)F)c3)[nH]c2-c2ccc(OC)cc2)cc1 [Compound T44, N^1-{2-[4,5-Bis(4-methoxyphenyl)-1H-imidazol-2-ylsufanyl]ethyl}-3,5-bis-(trifluoromethyl)benzamide]
[2]
  IC50: 0.52 µM

## COc1ccc(C(=O)NCCSc2nc(-c3ccc(OC)cc3)c(-c3ccc(OC)cc3)[nH]2)cc1 [Compound T45, N^1-{2-[4,5-Bis(4-methoxyphenyl)-1H-imidazol-2-ylsufanyl]ethyl}-4-methoxybenzamide]
[1]
  IC50: 1 µM

## COc1ccc(-c2nc(SCCNC(=O)c3cc(OC)c(OC)c(OC)c3)[nH]c2-c2ccc(OC)cc2)cc1 [Compound T46, N^1-{2-[4,5-Bis(4-methoxyphenyl)-1H-imidazol-2-ylsufanyl]ethyl}-3,4,5-trimethoxybenzamide]
[2]
  IC50: 0.64 µM
[1]
  IC50: 0.603 µM

## COc1ccc(-c2nc(SCCNC(=O)c3ccc(C)cc3)[nH]c2-c2ccc(OC)cc2)cc1 [Compound T47, N^1-{2-[4,5-Bis(4-methoxyphenyl)-1H-imidazol-2-ylsulfanyl]ethyl}4-methylbenzamide]
[1]
  IC50: 0.141 µM

## COc1ccc(-c2nc(SCCNC(=O)c3ccc(C(C)(C)C)cc3)[nH]c2-c2ccc(OC)cc2)cc1 [Compound T48, N^1-{2-[4,5-Bis(4-methoxyphenyl)-1H-imidazol-2-ylsufanyl]ethyl}-4-(tert-butyl)benzamide]
[2]
  IC50: 0.082 µM

## CCC(=O)NCCSc1nc(-c2ccc(OC)cc2)c(-c2ccc(OC)cc2)[nH]1 [Compound T50]
[3]
  IC50: 0.047 µM

## COc1ccc(-c2nc(SCCNC(=O)C(C)C)[nH]c2-c2ccc(OC)cc2)cc1 [Compound T51, N^1-{2-[4,5-Bis(4-methoxyphenyl)-1H-imidazol-2-ylsufanyl]ethyl}-2-methylpropanamide]
[3]
  IC50: 0.0088 µM
[4]
  IC50: ~0.001 µM

## COc1ccc(-c2nc(SCCNC(=O)C(C)(C)C)[nH]c2-c2ccc(OC)cc2)cc1 [Compound T52, N^1-{2-[4,5-Bis(4-methoxyphenyl)-1H-imidazol-2-ylsulfanyl]ethyl}-2,2-dimethylpropanamide]
[5]
  IC50: 0.417 µM

## COc1ccc(-c2nc(SCCNC(=O)c3ccco3)[nH]c2-c2ccc(OC)cc2)cc1 [Compound T53, N^1-{2-[4,5-Bis(4-methoxyphenyl)-1H-imidazol-2-ylsulfanyl]ethyl}furan-2-carboxamide]
[6]
  IC50: 0.347 µM

## COc1ccc(-c2nc(SCCNC(=O)c3cccs3)[nH]c2-c2ccc(OC)cc2)cc1 [Compound T54, N^1-{2-[4,5-Bis(4-methoxyphenyl)-1H-imidazol-2-ylsulfanyl]ethyl}thiophene-2-carboxamide]
[6]
  IC50: 0.1 µM

## COc1ccc(-c2nc(SCCNC(=O)c3cccc4ccccc34)[nH]c2-c2ccc(OC)cc2)cc1 [Compound T55, N^1-{2-[4,5-Bis(4-methoxyphenyl)-1H-imidazol-2-ylsulfanyl]ethyl}-1-naphthamide]
Table 11, heteroaryl- and naphthylamides, pig platelets, read-out: MDA IC50
  IC50: 0.56 µM

## COc1ccc(-c2nc(SCCNC(=O)c3ccc4ccccc4c3)[nH]c2-c2ccc(OC)cc2)cc1 [Compound T56, N^1-{2-[4,5-Bis(4-methoxyphenyl)-1H-imidazol-2-ylsulfanyl]ethyl}-2-naphthamide]
[6]
  IC50: 0.0398 µM

## CCN(CC)C(=O)NCCSc1nc(-c2ccc(OC)cc2)c(-c2ccc(OC)cc2)[nH]1 [Compound T58, N^1-{2-[4,5-Bis(4-methoxyphenyl)-1H-imidazol-2-ylsulfanyl]ethyl}-N′,N′-diethylurea]
Table 13, urea derivatives, pig platelets, read-out: MDA IC50
  IC50: 0.05 µM

## COc1ccc(-c2nc(SCCNC(=O)Cc3ccccc3)[nH]c2-c2ccc(OC)cc2)cc1 [Compound T59, N^1-{2-[4,5-Bis(4-methoxyphenyl)-1H-imidazol-2-ylsulfanyl]ethyl}-2-phenylacetamide]
[3]
  IC50: 0.054 µM

## COc1ccc(-c2nc(SCCNC(=O)CCc3ccccc3)[nH]c2-c2ccc(OC)cc2)cc1 [Compound T60, N^1-{2-[4,5-Bis(4-methoxyphenyl)-1H-imidazol-2-ylsulfanyl]ethyl}-3-phenylpropanamide]
[3]
  IC50: 0.15 µM
[5]
  IC50: 0.151 µM

## COc1ccc(-c2nc(SCCNC(=O)C=Cc3ccccc3)[nH]c2-c2ccc(OC)cc2)cc1 [Compound T61, N^1-{2-[4,5-Bis(4-methoxyphenyl)-1H-imidazol-2-ylsulfanyl]ethyl}-3-phenylprop-2-enamide]
[5]
  IC50: 0.182 µM

## COc1ccc(-c2nc(SCCNC(=O)C(c3ccccc3)c3ccccc3)[nH]c2-c2ccc(OC)cc2)cc1 [Compound T62, N^1-{2-[4,5-Bis(4-methoxyphenyl)-1H-imidazol-2-ylsulfanyl]ethyl}-2,2-diphenylacetamide]
[5]
  IC50: 0.129 µM

## COc1ccc(-c2nc(SCCNS(C)(=O)=O)[nH]c2-c2ccc(OC)cc2)cc1 [Compound T63, N^1-{2-[4,5-Bis(4-methoxyphenyl)-1H-imidazol-2-ylsulfanyl]ethyl}-methanesulfonamide]
Table 10, alkylsulfonamides, pig platelets, read-out: MDA IC50
  IC50: 0.076 µM

## CCS(=O)(=O)NCCSc1nc(-c2ccc(OC)cc2)c(-c2ccc(OC)cc2)[nH]1 [Compound T64, N^1-{2-[4,5-Bis(4-methoxyphenyl)-1H-imidazol-2-ylsulfanyl]ethyl}-ethanesulfonamide]
[7]
  IC50: 0.0389 µM

## COc1ccc(-c2nc(SCCNS(=O)(=O)C(C)C)[nH]c2-c2ccc(OC)cc2)cc1 [Compound T65, N^1-{2-[4,5-Bis(4-methoxyphenyl)-1H-imidazol-2-ylsulfanyl]ethyl}-propane-2-sulfonamide]
[7]
  IC50: 0.01 µM

## COc1ccc(-c2nc(SCCNS(=O)(=O)Cc3ccccc3)[nH]c2-c2ccc(OC)cc2)cc1 [Compound T66, N^1-{2-[4,5-Bis(4-methoxyphenyl)-1H-imidazol-2-ylsulfanyl]ethyl}-phenylmethanesulfonamide]
[7]
  IC50: 0.1 µM

## COc1ccc(-c2nc(SCCNS(=O)(=O)c3cccc4ccccc34)[nH]c2-c2ccc(OC)cc2)cc1 [Compound T67, N^1-{2-[4,5-Bis(4-methoxyphenyl)-1H-imidazol-2-ylsulfanyl]ethyl}-naphthalene-1-sulfonamide]
[8]
  IC50: 0.38 µM

## COc1ccc(-c2nc(SCCNS(=O)(=O)c3ccc4ccccc4c3)[nH]c2-c2ccc(OC)cc2)cc1 [Compound T68, N^1-{2-[4,5-Bis(4-methoxyphenyl)-1H-imidazol-2-ylsulfanyl]ethyl}-naphthalene-2-sulfonamide]
[8]
  IC50: 0.129 µM

## COc1ccc(-c2nc(SCc3cccnc3)[nH]c2-c2ccc(OC)cc2)cc1 [Compound T70, 3-[4,5-Bis(4-methoxyphenyl)-1H-imidazol-2-ylsulfanylmethyl]pyridine]
[9]
  IC50: 0.00302 µM
[4]
  IC50: ~0.001 µM

## COc1ccc(-c2nc(SCc3ccncc3)[nH]c2-c2ccc(OC)cc2)cc1 [Compound T71, 4-[4,5-Bis(4-methoxyphenyl)-1H-imidazol-2-ylsulfanylmethyl]pyridine]
[9]
  IC50: 0.00302 µM
[4]
  IC50: ~0.001 µM

## COc1ccc(-c2nc(SCc3ccc4ccccc4n3)[nH]c2-c2ccc(OC)cc2)cc1 [Compound T72, 2-[4,5-Bis(4-methoxyphenyl)-1H-imidazol-2-ylsulfanylmethyl]quinoline]
Table 5, heteroarylmethyl sulfides, pig platelets, read-out: MDA IC50
  IC50: 0.09 µM

## COc1ccc(-c2nc(SCc3nc4ccccc4[nH]3)[nH]c2-c2ccc(OC)cc2)cc1 [Compound T73]
[9]
  IC50: 0.389 µM

## COc1ccc(-c2nc(S(=O)(=O)Cc3ccccn3)[nH]c2-c2ccc(OC)cc2)cc1 [Compound T74, 2-[4,5-Bis(4-methoxyphenyl)-1H-imidazol-2-ylsulfonylmethyl]pyridine]
Table 14, sulfones and their sulfide analogs, pig platelets, read-out: MDA IC50
  IC50: 0.081 µM

## COc1ccc(-c2nc(SCc3ccncc3)n(CC(=O)O)c2-c2ccc(OC)cc2)cc1 [Compound T77, 2-[4,5-Bis(4-methoxyphenyl)-2-(4-pyridylmethylsulfanyl)-1H-imidazol-1-yl]-acetic acid]
Table 6, N1-acetic acid derivatives, pig platelets, read-out: MDA IC50
  IC50: 0.72 µM

## CCOC(=O)CSc1nc(-c2ccc(OC)cc2)c(-c2ccc(OC)cc2)[nH]1 [Compound T79, Ethyl 2-[4,5-bis(4-methoxyphenyl)-1H-imidazol-2-ylsufanyl]acetate]
Table 14, sulfones and their sulfide analogs, pig platelets, read-out: MDA pIC50 (converted)
  IC50: 0.012 µM
